Literature values as cited in PubChem BioAssay AID1259409 (Chemical Carcinogenesis Research Information System (CCRIS), 2018).

Test system: rodent chemically induced tumor inhibition, incidence and multiplicity
Assay: CCRIS tumor inhibitor studies
Details: Carcinogen: 1,2-DIMETHYLHYDRAZINE DIHYDROCHLORIDE, 306-37-6, Dose [Inhibitor]: 50 MG/L TAP WATER DAILY FOR 32 WK STARTING SIMULTANEOUSLY WITH CARCINOGEN TREATMENT (STUDY DURATION: 32 WK), Route [Inhibitor]: ORAL, Species: RAT, Strain/Sex: SPRAGUE-DAWLEY/MALE, Dose [Carcinogen]: 20 MG/KG BW WEEKLY FOR 20 WK, Promoter: NONE USED

For `Cc1ccc(Cl)c(Nc2ccccc2C(=O)O)c1Cl`, the “tumour outcome (control, treated, inhibition, significance)” value (Target Tissue: Type of Lesion: LARGE INTESTINE: TUMOR) is given as 88%, 90%, -2%, not significant and the “tumour outcome (control, treated, inhibition, significance)” value (Target Tissue: Type of Lesion: SMALL INTESTINE: TUMOR) is given as 46%, 35%, 24%, not significant.
